Patent publication US20080207859A1, “F[…] LOW RESIDUAL AMOUNT OF F[…] PROCESS FOR ITS PRODUCTION” (Asahi Glass Company, Limited, priority 2005, published 2008)

Test: Measurement of 1-octanol/water partition coefficient (LogPOW) by HPLC, OECD Test Guideline 117
Type: physicochemical
Details: for LogPOW (1-octanol/water partition coefficient): HPLC method, OECD Test Guideline 117, calculated from elution time via calibration curve of standard carboxylic acids, column temperature 40° C.; for bioaccumulation potential (judged from LogPOW value compared to APFO): inferred from LogPOW relative to APFO
Protocol: In accordance with OECD Test Guideline 117, 1-octanol/water partition coefficient (LogPOW) of a fluorinated emulsifier was measured by using HPLC (high performance liquid chromatography).
Conditions for the measurement were as follows:
column: TOSOH ODS-120T column (φ4.6 mm×250 mm), eluent: acetonitrile/0.6 mass % of HClO4 aqueous solution=1/1 (vol/vol %), flow rate: […], sample amount: 300 μL, column temperature: 40° C., and detection light: UV 210 nm (WO2005-42593).
HPLC was carried out on standard substances (heptanoic acid, octanoic acid, nonanoic acid and decanoic acid) having known 1-octanol/water partition coefficients, and a calibration curve was prepared from the respective elution times and octanol/water partition coefficients of the respective standard substances. Based on this calibration curve, a value of partition coefficient (LogPOW) between 1-octanol and water was calculated from the elution time by HPLC of the fluorinated emulsifier.

| SMILES | LogPOW (1-octanol/water partition coefficient) | bioaccumulation potential (judged from LogPOW value compared to APFO) |
| --- | --- | --- |
| N.O=C(O)C(F)(F)C(F)(F)C(F)(F)C(F)(F)C(F)(F)C(F)(F)C(F)(F)F [CF3(CF2)6COONH4, ammonium perfluorooctanoate] | 3.67 |  |
| N.O=C(O)C(F)(F)OC(F)(F)C(F)(F)OC(F)(F)C(F)(F)F [CF3CF2OCF2CF2OCF2COONH4] | 3.13 | low |
| N.O=C(O)C(F)(OC(F)(F)C(F)(OC(F)(F)C(F)(F)F)C(F)(F)F)C(F)(F)F (centres unmarked) [CF3CF2OCF(CF3)CF2OCF(CF3)COONH4] | 4.03 | high |
